Data taken from article PMC3244877 (2009).

Target: T1, HsEg5 (Homo sapiens, UniProt P52732)
T1 sequence (P52732 1-370): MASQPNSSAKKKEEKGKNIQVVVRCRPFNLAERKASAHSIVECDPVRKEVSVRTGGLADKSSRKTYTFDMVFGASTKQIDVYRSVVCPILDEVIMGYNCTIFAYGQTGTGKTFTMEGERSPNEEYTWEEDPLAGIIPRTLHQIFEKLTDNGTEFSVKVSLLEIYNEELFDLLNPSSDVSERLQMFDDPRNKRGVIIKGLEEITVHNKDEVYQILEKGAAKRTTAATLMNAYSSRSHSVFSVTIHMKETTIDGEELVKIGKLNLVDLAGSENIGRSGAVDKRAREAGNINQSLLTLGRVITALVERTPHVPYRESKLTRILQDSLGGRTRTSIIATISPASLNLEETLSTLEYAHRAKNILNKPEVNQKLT
Assay: NADH-coupled basal ATPase assay, Lineweaver-Burk
Assay type: biochemical

For `[Mo]` [NSC 622124], the Ki was 550 nM.
